Reference: patent US10131645B2, “Benzofurans substituted with primary benzamide as HCV inhibitors” (BRISTOL-MYERS SQUIBB COMPANY, priority 2015, dated 2018)

System: genotype 1b (Con-1) HCV replicon
Assay: HCV Replicon Luciferase Assay
Assay type: cell-based
Settings: Hepatitis C virus, 72 h; Huh-7 cells, genotype 1b replicon, Renilla luciferase, 3 days incubation; read-out: EC50 1b (class)
Protocol: The cell lines used to evaluate compounds consist of a human hepatocyte derived cell line (Huh-7) that constitutively expresses a genotype 1b (Con-1) HCV replicon or a genotype 1b (Con-1) HCV replicon with an asparagine replacing the cysteine at amino acid 316, or a genotype 2a (JFH-1) replicon, containing a Renilla luciferase reporter gene. These cells were maintained in Dulbecco's modified Eagle medium (DMEM) containing 10% FBS, 100 U/mL penicillin/streptomycin and 1.0 mg/mL G418.
To evaluate compound efficacy, titrated compounds were transferred to sterile 384-well tissue culture treated plates, and the plates were seeded with HCV replicon cells (50 μL at a density of 2.4×10^3 cells/well) in DMEM containing 4% FBS (final DMSO concentration at 0.5%). After 3 days incubation at 37° C., cells were analyzed for Renilla Luciferase activity using the EnduRen substrate (Promega cat #E6485) according to the manufacturer's directions. Briefly, the EnduRen substrate was diluted in DMEM and then added to the plates to a final concentration of 7.5 μM. The plates were incubated for at least 1 h at 37° C. then read on a Viewlux Imager (PerkinElmer) using a luminescence program. The 50% effective concentration (EC50) was calculated using the four-parameter logistic formula noted above.

Structure (SMILES) | EC50 [µM]
CCNc1cc2oc(-c3ccc(F)cc3)c(C(=O)NC)c2cc1-c1cccc(C(=O)NCC(F)(F)c2ccccn2)c1 [Compound 1002] | < 0.1
CCNc1cc2oc(-c3ccc(F)cc3)c(C(=O)NC)c2cc1-c1cccc(C(=O)NCC(C)(C)c2ccccc2)c1 [Compound 1003] | < 0.1
CCNc1cc2oc(-c3ccc(F)cc3)c(C(=O)NC)c2cc1-c1cccc(C(=O)NCC(C)(C)c2ccc(Cl)cc2)c1 [Compound 1004] | < 0.1
CCNc1cc2oc(-c3ccc(F)cc3)c(C(=O)NC)c2cc1-c1cccc(C(=O)NC(C)(C(=O)OC)C(F)(F)F)c1 (centres unmarked) [Compound 1005] | < 0.1
CCNc1cc2oc(-c3ccc(F)cc3)c(C(=O)NC)c2cc1-c1cccc(C(=O)NC(C#N)C(=O)NC)c1 (centres unmarked) [Compound 1007] | < 0.1
CCNc1cc2oc(-c3ccc(F)cc3)c(C(=O)NC)c2cc1-c1cccc(C(=O)NC(C#N)C(N)=O)c1 (centres unmarked) [Compound 1008] | < 0.1
CCNc1cc2oc(-c3ccc(F)cc3)c(C(=O)NC)c2cc1-c1cccc(C(=O)NC[C@H](F)CO)c1 [Compound 1009] | < 0.1
CCNc1cc2oc(-c3ccc(F)cc3)c(C(=O)NC)c2cc1-c1cccc(C(=O)NC(C)(C#N)C2CC2)c1 (centres unmarked) [Compound 1010] | < 0.1
CCNc1cc2oc(-c3ccc(F)cc3)c(C(=O)NC)c2cc1-c1cccc(C(=O)NC(C(=O)OC)C(F)(F)F)c1 (centres unmarked) [Compound 1012] | 0.1 to 1
CCN(c1cc2oc(-c3ccc(F)cc3)c(C(=O)NC)c2cc1-c1cccc(C(=O)NC(c2ccccc2)C(F)(F)F)c1)S(C)(=O)=O (centres unmarked) [Compound 2001] | < 0.1
CCN(c1cc2oc(-c3ccc(F)cc3)c(C(=O)NC)c2cc1-c1cccc(C(=O)NC(c2ccccn2)C(F)(F)F)c1)S(C)(=O)=O (centres unmarked) [Compound 2002] | < 0.1
CCN(c1cc2oc(-c3ccc(F)cc3)c(C(=O)NC)c2cc1-c1cccc(C(=O)NC(C2CC2)C(F)(F)F)c1)S(C)(=O)=O (centres unmarked) [Compound 2003] | < 0.1
CCN(c1cc2oc(-c3ccc(F)cc3)c(C(=O)NC)c2cc1-c1cccc(C(=O)NC(C(=O)OC)C(F)(F)F)c1)S(C)(=O)=O (centres unmarked) [Compound 2005] | 0.1 to 1
CCN(c1cc2oc(-c3ccc(F)cc3)c(C(=O)NC)c2cc1-c1cccc(C(=O)NC(C#N)c2ccccc2)c1)S(C)(=O)=O (centres unmarked) [Compound 2006] | < 0.1
CCN(c1cc2oc(-c3ccc(F)cc3)c(C(=O)NC)c2cc1-c1cccc(C(=O)NC(C(N)=O)c2ccccc2)c1)S(C)(=O)=O (centres unmarked) [Compound 2007] | 0.1 to 1
CCOc1cc(C(C#N)NC(=O)c2cccc(-c3cc4c(C(=O)NC)c(-c5ccc(F)cc5)oc4cc3N(CC)S(C)(=O)=O)c2)ccc1OC(C)C (centres unmarked) [Compound 2008] | < 0.1
CNC(=O)c1c(-c2ccc(F)cc2)oc2cc(N(CC3CC3)S(C)(=O)=O)c(-c3cccc(C(=O)NC(C)(C#N)C4CC4)c3)cc12 (centres unmarked) [Compound 3001] | < 0.1
CNC(=O)c1c(-c2ccc(F)cc2)oc2cc(N(CCF)S(C)(=O)=O)c(-c3cccc(C(=O)N[C@H](COC)C4CC4)c3)cc12 [Compound 4001] | < 0.1
CNC(=O)c1c(-c2ccc(F)cc2)oc2cc(N(CCF)S(C)(=O)=O)c(-c3cccc(C(=O)N[C@@H](COC)C4CC4)c3)cc12 [Compound 4002] | < 0.1
CNC(=O)c1c(-c2ccc(F)cc2)oc2cc(N(CCF)S(C)(=O)=O)c(-c3cccc(C(=O)N[C@@H](CO)C4CC4)c3)cc12 [Compound 4003] | < 0.1
CNC(=O)c1c(-c2ccc(F)cc2)oc2cc(N(CCCF)S(C)(=O)=O)c(-c3cccc(C(=O)NC(c4ccccn4)C(F)(F)F)c3)cc12 (centres unmarked) [Compound 5002] | < 0.1
CNC(=O)c1c(-c2ccc(F)cc2)oc2cc(N(CCCF)S(C)(=O)=O)c(-c3cccc(C(=O)NC(C)(C#N)C4CC4)c3)cc12 (centres unmarked) [Compound 5003] | < 0.1
CCN(CC)c1cc2oc(-c3ccc(F)cc3)c(C(=O)NC)c2cc1-c1cccc(C(=O)NC(C(N)=O)c2ccccc2)c1 (centres unmarked) [Compound 6001] | < 0.1
CCN(CC)c1cc2oc(-c3ccc(F)cc3)c(C(=O)NC)c2cc1-c1cccc(C(=O)N[C@@H](CO)C(N)=O)c1 [Compound 6002] | 0.1 to 1
CCN(CC)c1cc2oc(-c3ccc(F)cc3)c(C(=O)NC)c2cc1-c1cccc(C(=O)NCC(C(=O)O)C(F)(F)F)c1 (centres unmarked) [Compound 6005] | 0.1 to 1
CCN(C(=O)C(F)(F)F)c1cc2oc(-c3ccc(F)cc3)c(C(=O)NC)c2cc1-c1cccc(C(=O)NC(C(=O)OC)C(F)(F)F)c1 (centres unmarked) [Compound 7001] | 0.1 to 1

Same assay, conditions: Hepatitis C virus, 72 h; Huh-7 cells, genotype 1b replicon, Renilla luciferase, 3 days incubation; read-out: EC50 (uM) 1b

Structure (SMILES) | EC50 [µM]
CCNc1cc2oc(-c3ccc(F)cc3)c(C(=O)NC)c2cc1-c1cccc(C(=O)NCC(F)(F)c2ccccc2)c1 [Compound 1001] | 0.0486
CCNc1cc2oc(-c3ccc(F)cc3)c(C(=O)NC)c2cc1-c1cccc(C(=O)NC(C#N)c2ccccc2)c1 (centres unmarked) [Compound 1006] | 0.0162
CCNc1cc2oc(-c3ccc(F)cc3)c(C(=O)NC)c2cc1-c1cccc(C(=O)NC(C2CC2)C(F)(F)F)c1 (centres unmarked) [Compound 1011] | 0.0128
CCN(c1cc2oc(-c3ccc(F)cc3)c(C(=O)NC)c2cc1-c1cccc(C(=O)NC(c2cccnc2)C(F)(F)F)c1)S(C)(=O)=O (centres unmarked) [Compound 2004] | 0.0096
CCN(c1cc2oc(-c3ccc(F)cc3)c(C(=O)NC)c2cc1-c1cccc(C(=O)NC(C)(C#N)C2CC2)c1)S(C)(=O)=O (centres unmarked) [Compound 2009] | 0.0032
CNC(=O)c1c(-c2ccc(F)cc2)oc2cc(N(CCCF)S(C)(=O)=O)c(-c3cccc(C(=O)NC(C4CC4)C(F)(F)F)c3)cc12 (centres unmarked) [Compound 5001] | 0.0229
CCN(CC)c1cc2oc(-c3ccc(F)cc3)c(C(=O)NC)c2cc1-c1cccc(C(=O)N[C@]2(C(=O)O)C[C@@H]2CO)c1 [Compound 6004] | 0.946

System: HCV
Assay: not given
Settings: extended dosing of the combination regimens; cited from earlier work

Structure (SMILES) | hepatic toxicity
CNC(=O)c1c(-c2ccc(F)cc2)oc2cc(N(CCO)S(C)(=O)=O)c(C3CC3)cc12 [HCV-796] | hepatic toxicity observed

Same assay, conditions: patients; single agent transient, more robust with interferon and ribavirin; cited from earlier work

Structure (SMILES) | HCV RNA levels in patients
CNC(=O)c1c(-c2ccc(F)cc2)oc2cc(N(CCO)S(C)(=O)=O)c(C3CC3)cc12 [HCV-796] | reduce HCV RNA levels
